Source: ChEMBL document CHEMBL3758105 (J Med Chem, 2016)
≈ marks a conversion by molar mass, not a printed value.

How the values were obtained:
[1] = Intrinsic clearance in human liver microsomes measured over 40 mins by HPLC/MS analysis; type: ADME; conditions: read-out: CLH
[2] = target: Collagenase 3 (Homo sapiens, UniProt P45452); test: Inhibition of full length human recombinant MMP13 using MCA-Arg-Pro-Leu-Gly-Leu-Dpa-Ala-Arg-Glu-Arg-NH2 as substrate preincubated for 60 mins followed by substrate addition by fluorescence assay
[3] = target: Stromelysin-1 (Homo sapiens, UniProt P08254); test: Inhibition of MMP3 (unknown origin) catalytic domain using MCA-Arg-Pro-Leu-Gly-Leu-Dpa-Ala-Arg-Glu-Arg-NH2 as substrate preincubated for 60 mins followed by substrate addition by fluorescence assay
[4] = Clearance in Sprague-Dawley rat at 0.2 mg/kg, iv administered as cassette bolus dose by LC-MS/MS analysis; type: ADME, organism-based; conditions: in vivo
[5] = Half life of the compound assessed as compound rearrangement; type: physicochemical
[6] = target: T1, Organic anion transporter 3 (Homo sapiens, UniProt Q8TCC7); test: Inhibition of human OAT3 expressed in HEK cells assessed as reduction of [3H]-estrone sulfate uptake by radioactivity counting analysis; type: cell-based, HEK293
T1 sequence (Q8TCC7 whole entry): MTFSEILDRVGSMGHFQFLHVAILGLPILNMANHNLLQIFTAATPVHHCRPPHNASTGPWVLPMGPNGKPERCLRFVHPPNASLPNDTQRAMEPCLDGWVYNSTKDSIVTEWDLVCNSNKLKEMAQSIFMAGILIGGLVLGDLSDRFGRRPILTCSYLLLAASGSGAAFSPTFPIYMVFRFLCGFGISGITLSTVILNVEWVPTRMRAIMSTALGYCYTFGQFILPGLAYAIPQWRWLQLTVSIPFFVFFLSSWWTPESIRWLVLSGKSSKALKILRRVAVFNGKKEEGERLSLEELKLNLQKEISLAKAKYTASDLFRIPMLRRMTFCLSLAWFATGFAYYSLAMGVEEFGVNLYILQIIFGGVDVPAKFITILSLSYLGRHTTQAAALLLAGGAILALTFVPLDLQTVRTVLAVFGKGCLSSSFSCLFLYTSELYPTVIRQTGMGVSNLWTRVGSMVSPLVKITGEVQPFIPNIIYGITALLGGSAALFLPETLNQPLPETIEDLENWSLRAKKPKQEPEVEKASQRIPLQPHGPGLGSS

[7] = physchem; conditions: buffer, pH 7.4
[8] = Intrinsic clearance in rat liver microsomes measured over 40 mins by HPLC/MS analysis; type: ADME; conditions: read-out: CLH
[9] = Clearance in Sprague-Dawley rat at 1 mg/kg, iv administered as bolus dose by LC-MS/MS analysis; type: ADME, organism-based; conditions: in vivo
[10] = target: CYP2C9 (Homo sapiens, UniProt P11712); test: Inhibition of CYP2C9 in human liver microsomes assessed as reduction of diclofenac metabolism at 3 uM after 8 mins; type: ADME; conditions: probe diclofenac
[11] = tested on: Canis familiaris; test: Free AUC in beagle dog at 1 mg/kg, po administered as cassette dosing; type: ADME, organism-based, Canis lupus familiaris; conditions: in vivo
[12] = Plasma protein binding in beagle dog at 1 mg/kg, po administered as cassette dosing; type: ADME, organism-based, Canis lupus familiaris; conditions: read-out: PPB (converted)
[13] = tested on: Canis familiaris; test: Free Cmax in beagle dog at 1 mg/kg, po administered as cassette dosing; type: ADME, organism-based, Canis lupus familiaris; conditions: in vivo
[14] = Plasma protein binding in human; type: ADME, cell-free; conditions: read-out: PPB (converted)
[15] = Thermodynamic solubility of the compound in crystalline solid form in phosphate buffer at pH 7.4; type: physicochemical; conditions: read-out: Therm_solubility
[16] = Oral bioavailability in Sprague-Dawley rat at 1 mg/kg; type: ADME, organism-based; conditions: in vivo

Sequence of Stromelysin-1 (P08254 whole entry, the tested form may be a part): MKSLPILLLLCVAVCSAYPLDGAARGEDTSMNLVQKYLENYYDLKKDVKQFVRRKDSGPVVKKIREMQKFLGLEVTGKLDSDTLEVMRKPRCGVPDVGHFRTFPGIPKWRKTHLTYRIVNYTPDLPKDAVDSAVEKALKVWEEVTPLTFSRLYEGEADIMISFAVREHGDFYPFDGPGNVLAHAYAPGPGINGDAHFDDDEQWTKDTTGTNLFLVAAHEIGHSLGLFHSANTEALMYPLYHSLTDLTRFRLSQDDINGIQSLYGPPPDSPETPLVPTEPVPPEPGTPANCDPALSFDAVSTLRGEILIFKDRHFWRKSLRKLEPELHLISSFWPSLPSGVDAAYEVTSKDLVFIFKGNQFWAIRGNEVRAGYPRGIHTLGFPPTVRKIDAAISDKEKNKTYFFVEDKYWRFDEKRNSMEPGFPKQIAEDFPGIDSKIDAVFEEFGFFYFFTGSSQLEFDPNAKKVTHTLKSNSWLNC
Sequence of CYP2C9 (P11712 whole entry): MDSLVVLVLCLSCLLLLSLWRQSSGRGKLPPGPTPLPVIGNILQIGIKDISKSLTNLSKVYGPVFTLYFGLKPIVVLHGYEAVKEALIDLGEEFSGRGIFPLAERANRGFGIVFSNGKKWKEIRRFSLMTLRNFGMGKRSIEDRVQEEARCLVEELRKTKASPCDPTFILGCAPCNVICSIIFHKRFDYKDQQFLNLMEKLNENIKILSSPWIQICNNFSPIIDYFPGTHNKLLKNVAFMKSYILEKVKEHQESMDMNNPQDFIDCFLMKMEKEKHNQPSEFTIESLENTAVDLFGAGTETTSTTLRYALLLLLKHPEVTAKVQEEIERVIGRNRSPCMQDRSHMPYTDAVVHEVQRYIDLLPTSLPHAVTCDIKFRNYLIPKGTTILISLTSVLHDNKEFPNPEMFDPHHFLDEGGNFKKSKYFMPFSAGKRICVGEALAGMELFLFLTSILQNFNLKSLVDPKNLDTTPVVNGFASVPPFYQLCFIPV

SMILES	microsomal CLint [1]	Ki [2]	Ki [3]	clearance [4]	clearance [9]	bioavailability [16]	also measured
COc1cccc(CNC(=O)c2cc(-c3nnn(C[C@H]4CC[C@H](NS(C)(=O)=O)CC4)n3)cc(C)n2)c1	< 8 µL/min/mg	0.25 nM	> 10000 nM	42.6 mL/min/kg	–	–	–
COc1cccc(CNC(=O)c2cc(-c3nnn(C[C@H]4CC[C@H](NC(C)=O)CC4)n3)cc(C)n2)c1	24.7 µL/min/mg	2 nM	> 10000 nM	77.6 mL/min/kg	–	–	–
Cc1cc(-c2nnn(C[C@H]3CC[C@H](C(=O)O)CC3)n2)cc(C(=O)NCc2ccc(F)cc2)n1	–	–	–	–	–	–	half-life [5]: 67 h; IC50 [6]: 6000 nM

Continued by falling Ki [2], values first:

microsomal CLint [1]	Ki [2]	Ki [3]	clearance [4]	clearance [9]	bioavailability [16]	SMILES	also measured
< 8 µL/min/mg	5.8 nM	> 10000 nM	–	10.6 mL/min/kg	65%	COc1cccc(CNC(=O)c2cc(-c3nnn(C[C@H]4CO[C@H](CO)CO4)n3)nc(C)n2)c1 (racemic)	fAUC [11]: 3.24 µM·h; fraction unbound [12]: 0.37; fCmax [13]: 580 nM; fraction unbound [14]: 0.31; solubility thermodynamic [15]: 237 µM (≈ 108 µg/mL)
< 8 µL/min/mg	4.2 nM	> 10000 nM	–	9.8 mL/min/kg	113%	COc1cc(CNC(=O)c2cc(-c3nnn(C[C@@H]4CO[C@@H](CO)CO4)n3)nc(C)n2)ccc1F	–
32.7 µL/min/mg	2.1 nM	> 10000 nM	–	76.6 mL/min/kg	–	COc1cccc(CNC(=O)c2cc(-c3nnn(C[C@H]4CC[C@H](CO)CC4)n3)cc(C)n2)c1	logD [7]: 3.57; microsomal CLint [8]: 94.9 µL/min/mg; inhibition at 8 min, 3 µM [10]: 66%
